Data from patent US20260325520A1, “METHODS FOR TREATING OR PREVENTING NEUROENDOCRINE TUMR FORMATION USING CDC7 INHIBITORS” (Memorial Sloan-Kettering Cancer Center, priority 2022, published 2026).

Key:
Proteasome 20S = test: Proteasome activity assay; format: cell-based; conditions: prostate transformation models (FIG. 6D)
From the text: FIG. 6A: Pathway enrichment analyses on differentially expressed genes between the combo-and enzalutamide-treated tumors, collected at an intermediate time point in the for TP53/RB1-inactivated LnCap and 22PC experiments shown in FIG. 5. […] FIG. 6C: MYC mRNA levels in the tumors collected at endpoint in the prostate transformation models treated in FIG. 5A. FIG. 6D: Barplot showing proteasome activity in control and CDC7-inhibited (either pharmacologically by simurosertib, or genetically by CDC7 CRISPR KO) prostate transformation models. FIG. 6E: Western blots showing neuroendocrine marker expression in prostate models of transformation, when treated with enzalutamide, simurosertib or their combination. Specifically, for each treatment condition, isogenic control and MYC^T58A-expressing cells were analyzed.
Proteasome activity was measured with the Proteasome 20S Activity Assay Kit (#MAK172, Sigma), following the manufacturer's instructions.

H1563 (LUAD) cells = test: Viability of control and TP53/RB1-loss H1563 cells treated with simurosertib; format: cell-based; conditions: 0.5 μM; double TP53/RB1 loss versus control or single gene loss
From the text: CDC7 mRNA (FIG. 3A) and protein (FIG. 3B) expression in lung tumor clinical specimens, categorized as control never transformed adenocarcinomas (LUAD), transforming adenocarcinomas (T-LUAD) and small cell carcinomas (T-SCLC) and control de novo small cell carcinomas (SCLC). For FIG. 3B, H-score medians and standard deviation are shown. FIG. 3C: CDC7 mRNA expression in PRAD tumors with or without NE features. Data from Abida et al., PNAS 2019. FIG. 3D: CDC7 protein expression in PRAD and NEPC clinical specimens, as assessed by IHC. H-score medians and standard deviation and representative images (FIG. 3E) are shown. […] FIG. 3G: In vivo treatment of Lx1042 (T-SCLC) and LuCAP49 (NEPC) PDXs was conducted to compare the efficacy of the combination of cisplatin and simurosertib versus that of cisplatin and etoposide. Student's t-test was performed to assess statistical significance (two-tailed, assuming heterogeneous value distribution) p-value legend: *<0.05, **<0.01, ***<0.001. FIG. 3H: CDC7 mRNA expression in adenocarcinoma clinical specimens, categorized by their TP53/RB1 status. Data obtained from LUAD TCGA (PanCancer), LUAD OncoSG (OncoSG, Nat Genetics 2020) and PRAD TCGA (PanCancer). […]
Cytotoxic assays were performed as described in ^19. […] Viability was assessed with the CellTiter-Glo 2.0 Assay (Promega, G9242) as indicated by manufacturer.

Cc1n[nH]cc1-c1cc2nc([C@@H]3CC4CCN3CC4)[nH]c(=O)c2s1 [simurosertib]
proteasome activity (Proteasome 20S): induced proteasome activity
simurosertib sensitivity (H1563 (LUAD) cells): increased simurosertib sensitivity
